Experimental findings from US12708601B2, “Mangosteen pericarp extract and process for its preparation thereof” (JUNHONG BIOTECHNOLOGY CO., LTD., priority 2020, dated 2026) are described below.

The test system of the experiment is B16F10 melanoma cells. Description: Cell viability assay (MTT) in B16F10 cells treated with α-MSH with or without aqua choice. Format: cell-based, mouse. The settings on record: 100 nM, 24 hours of incubation. The method, then:
The mouse B16F10 melanoma cells were purchased from Bioresource Collection and Research Center (BCRC, Hsinchu, Taiwan) and cultured using Dulbecco's Modified Eagle Medium (DMEM, Gibco, MA, USA) supplemented with 10% fetal bovine serum and 1% antibiotics (100 units/mL penicillin, […], 0.25 μg/mL amphotericin) in a humidified atmosphere of 5% CO2 at 37° C. The control group was untreated with alpha-melanocyte-stimulating hormone (α-MSH) and aquachoice; The different treatment groups were all treated with α-MSH and different doses aquachoice.
Cells were seeded at a density of […] in 96-well plate for 24 h and then treated with aqua choice at different concentrations for 24 and 48 h. At the end of the treatment, the medium was removed and 100 μL 3-(4,5-Dimethylthiazol-2-yl)-2,5-Diphenyltetrazolium bromide (MTT) solution (Sigma-Aldrich, USA) was treated. MTT reagent was cleanly removed after incubation in a 37° C. incubator for 3 hours, and then 100 μL of DMSO per well was added to dissolve all of the formazan generated in the wells. The result was measured by absorbance at 570 nm with an ELISA reader.

Turning to “alpha-melanocyte-stimulating hormone [α-MSH]”, the “increase in cell viability” value is on record as ~ 1.55 fold.
